Counter-ions that a name gives are not always drawn. Values belong to the molecule of their own block, whether it stands above or below them.
Assays:
[1] = system: Ff-WJ-18 cells (human iPS cells); assay: Induction of differentiation of iPS cells into pancreatic progenitor cells at stage 4, flow cytometry; type: cell-based; details: stage 4, 4 days, 0.00001 μM to 1 μM, medium with or without ROCK inhibitor Y-27632, vs negative control (FIG. 2, FIG. 3)
Procedure: The human iPS cells used were Ff-WJ-18 cells (Kyoto University). The Ff-WJ-18 cells maintenance-cultured according to Reference Example 1 were induced to differentiate into pancreatic progenitor cells by the following procedures. Culture was performed at 37° C. under 5% CO2 in all cases, and the culture container used was coated with iMatrix-511(TM) (Nippi).
Ff-WJ-18 cells (70,000 cells/9.6 cm^2) were seeded to RPMI1640 medium containing 1% penicillin/streptomycin, 1% B27, activin A (100 ng/mL), CHIR99021 (3 μM), and Y-27632 (10 μM), and cultured for 1 day. The cells were further cultured for 2 days in RPMI1640 medium containing 1% penicillin/streptomycin, 1% B27, and activin A (100 ng/mL) with the medium replaced with a fresh one every day.
The resulting cells were cultured for 4 days using instead iMEM medium containing 1% penicillin/streptomycin, 1% B27, and KGF (50 ng/mL). […]
The cells after the culture at stage 4 were collected, and the proportion of NKX6.1-positive/PDX-1-positive cells was determined by flow cytometry. Likewise, the proportion of the cells was determined as to iPS cells and cells before the culture at stage 4 (s3d2: stage 3, day 2). […]
Also, an effect was compared between a factor having CDK1/2-inhibiting activity and a factor having CDK8/19-inhibiting activity by a similar method. […] The proportion of NKX6.1-positive/PDX-1-positive cells was determined.

[2] = biological target: T1, CDK8/CycC (Homo sapiens, UniProt P49336); assay: CDK8-inhibiting activity (Kinase Tracer-236 / Eu-anti-GST fluorescence assay); type: binding; details: read-out: rate of inhibition of CDK8; for inhibition at 1 µM: 1 μM test compound; for inhibition at 10 µM: 10 μM test compound
T1 construct: purchased Carna Biosciences
Procedure: (§1) Test compounds were evaluated for their CDK8-inhibiting activity and CDK19-inhibiting activity by the following method.
(§2) Each test compound dissolved in dimethyl sulfoxide was diluted with an assay buffer (25 mM HEPES, 10 mM MgCl2, 2 mM DL-dithiothreitol, 0.01% Tween-20) to obtain a primary dilution having a DMSO concentration of 3%. The primary dilution was dispensed at 2 μL/well to a 384-well plate. Then, a mixed solution of Eu^3+ Cryptate conjugated mouse monoclonal antibody anti-glutathione S-transferase (CisBio) diluted 267-fold with an assay buffer and 60 nM Kinase Tracer-236 (Life Technologies) was added at 2 μL/well. After the addition, a kinase solution (84 ng/mL CDK8/CycC (Carna Biosciences) diluted with an assay buffer was used for CDK8-inhibiting activity measurement, and 87 ng/mL CDC2L6/CycC (Carna Biosciences) diluted with an assay buffer was used for CDK19-inhibiting activity measurement) was further added at 2 μL/well. After the addition, the plate was left standing at room temperature for 1 hour, followed by the measurement of fluorescence intensity (excitation wavelength: 320 nm, fluorescence wavelength: 615 nm, 665 nm, delay time: 50 μsec) using a plate reader EnVision (Perkin Elmer).
(§3) When the fluorescence intensity of a reaction solution under compound non-addition conditions was used as a control and the fluorescence intensity of a reaction solution under 10 μM control compound addition conditions was used as a blank, the rate of inhibition of CDK8 or CDK19 by the test compound can be calculated according to the following expression:
(§4) Rate of inhibition (%)=(1−(Fluorescence intensity of the test compound−Blank)/(Control−Blank))×100
(§5) The control compound used was commercially available 4-(4-(2,3-dihydro-1,4-benzodioxin-6-yl)-1H-pyrazol-3-yl)benzene-1,3-diol.

[3] = biological target: T2, CDC2L6/CycC (CDK19) (Homo sapiens, UniProt Q9BWU1); assay: CDK19-inhibiting activity (Kinase Tracer-236 / Eu-anti-GST fluorescence assay); type: binding; details: read-out: rate of inhibition of CDK19; for inhibition at 1 µM: 1 μM test compound; for inhibition at 10 µM: 10 μM test compound
T2 construct: purchased Carna Biosciences
Procedure: as §1, §2, §3, §4, §5

T2 sequence (Q9BWU1 whole entry): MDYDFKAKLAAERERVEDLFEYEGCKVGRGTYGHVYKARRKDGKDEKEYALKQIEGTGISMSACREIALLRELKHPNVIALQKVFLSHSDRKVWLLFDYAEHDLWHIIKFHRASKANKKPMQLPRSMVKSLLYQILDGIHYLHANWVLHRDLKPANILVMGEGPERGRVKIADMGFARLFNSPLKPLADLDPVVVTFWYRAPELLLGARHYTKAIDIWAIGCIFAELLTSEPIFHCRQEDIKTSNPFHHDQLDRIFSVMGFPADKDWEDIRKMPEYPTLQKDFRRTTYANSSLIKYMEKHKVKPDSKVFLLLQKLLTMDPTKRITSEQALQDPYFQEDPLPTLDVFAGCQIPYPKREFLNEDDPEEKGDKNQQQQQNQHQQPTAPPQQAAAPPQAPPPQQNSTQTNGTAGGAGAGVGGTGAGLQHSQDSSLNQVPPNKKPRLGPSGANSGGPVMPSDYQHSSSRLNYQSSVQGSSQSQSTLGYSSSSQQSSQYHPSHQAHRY
T2 sequence (P24863 whole entry partner): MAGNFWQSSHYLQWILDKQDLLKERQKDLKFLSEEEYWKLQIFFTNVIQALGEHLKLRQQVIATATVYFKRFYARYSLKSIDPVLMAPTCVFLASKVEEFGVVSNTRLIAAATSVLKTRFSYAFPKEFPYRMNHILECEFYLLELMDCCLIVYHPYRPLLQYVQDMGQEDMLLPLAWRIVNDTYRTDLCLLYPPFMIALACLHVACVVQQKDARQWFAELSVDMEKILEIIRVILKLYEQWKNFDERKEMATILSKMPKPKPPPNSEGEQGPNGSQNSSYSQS
T1 sequence (P49336 whole entry): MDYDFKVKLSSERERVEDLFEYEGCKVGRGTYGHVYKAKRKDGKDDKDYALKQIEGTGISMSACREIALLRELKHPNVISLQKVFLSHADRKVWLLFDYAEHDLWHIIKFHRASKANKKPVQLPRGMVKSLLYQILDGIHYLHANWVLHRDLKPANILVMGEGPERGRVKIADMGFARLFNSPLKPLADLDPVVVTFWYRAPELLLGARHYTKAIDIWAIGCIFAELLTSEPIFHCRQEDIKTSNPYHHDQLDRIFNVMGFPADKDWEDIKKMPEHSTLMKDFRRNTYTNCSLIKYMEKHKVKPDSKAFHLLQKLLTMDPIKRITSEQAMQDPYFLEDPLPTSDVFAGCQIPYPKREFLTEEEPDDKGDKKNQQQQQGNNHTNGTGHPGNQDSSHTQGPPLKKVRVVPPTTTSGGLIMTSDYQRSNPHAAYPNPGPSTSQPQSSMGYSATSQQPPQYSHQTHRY
T1 sequence (P24863 whole entry partner): as the sequence (P24863 whole entry partner) above

SMILES: Nc1nc(Nc2ccc(S(N)(=O)=O)cc2)nn1C(=S)Nc1c(F)cccc1F [CAS443798-55-8]
proportion of NKX6.1-positive/PDX-1-positive cells [1]: efficient induction of differentiation into pancreatic progenitor cells was not observed

SMILES: Cn1ncc2c1-c1c(Oc3ccc(F)cc3F)sc(C(N)=O)c1CC2 [Compound 1, 8-(2,4-Difluorophenoxy)-1-methyl-4,5-dihydro-1H-thieno[3,4-g]indazole-6-carboxamide]
inhibition at 1 µM [2]: 97%
inhibition at 10 µM [2]: 94%
inhibition at 1 µM [3]: 99%
inhibition at 10 µM [3]: 96%

SMILES: O=C1Nc2ccccc2N(S(=O)(=O)c2ccc(F)cc2)C1CCSc1ccc2nccn2n1 (centres unmarked) [Compound 2, 4-((4-Fluorophenyl)sulfonyl)-3-(2-(imidazo[1,2-b]pyridazin-6-ylsulfanyl)ethyl)-3,4-dihydroquinoxalin-2(1H)-one]
inhibition at 1 µM [2]: 100%
inhibition at 10 µM [2]: 100%
inhibition at 1 µM [3]: 102%
inhibition at 10 µM [3]: 103%

SMILES: c1ccc(COc2cccc(-c3c[nH]c4ncccc34)c2)cc1 [Compound 4, 3-(3-(Benzyloxy)phenyl)-1H-pyrrolo[2,3-b]pyridine]
inhibition at 1 µM [2]: 91%
inhibition at 10 µM [2]: 102%
inhibition at 1 µM [3]: 94%
inhibition at 10 µM [3]: 101%

More lines, now with the values ahead:

inhibition at 1 µM [2]: 101%
inhibition at 10 µM [2]: 105%
inhibition at 1 µM [3]: 101%
inhibition at 10 µM [3]: 104%
SMILES: NC(=O)c1ccc(-c2c[nH]c3ncccc23)cc1NCc1ccccc1 [Compound 3, 2-(Benzylamino)-4-(1H-pyrrolo[2,3-b]pyridin-3-yl)benzamide]

inhibition at 1 µM [2]: 87%
inhibition at 10 µM [2]: 100%
inhibition at 1 µM [3]: 86%
inhibition at 10 µM [3]: 100%
SMILES: Oc1ccc(-c2n[nH]cc2-c2ccc3c(c2)OCCO3)c(O)c1 [Compound 5, 4-(4-(2,3-Dihydro-1,4-benzodioxin-6-yl)-1H-pyrazol-3-yl)benzene-1,3-diol, reference compound]

inhibition at 1 µM [2]: 103%
inhibition at 10 µM [2]: 102%
inhibition at 1 µM [3]: 100%
inhibition at 10 µM [3]: 100%
SMILES: CCCCNC(=O)c1ccc2cncc(-c3ccc(OC)cc3)c2n1 [Compound 6, N-Butyl-8-(4-methoxyphenyl)-1,6-naphthyridine-2-carboxamide trifluoroacetate]

inhibition at 1 µM [2]: 92%
inhibition at 10 µM [2]: 104%
inhibition at 1 µM [3]: 83%
inhibition at 10 µM [3]: 100%
SMILES: CCCN(CCC)C(=O)c1ccc2cncc(-c3ccc(C)cc3)c2n1 [Compound 7, 8-(4-Methylphenyl)-N,N-dipropyl-1,6-naphthyridine-2-carboxamide trifluoroacetate]

— patent publication US20190390169A1, “PANCREATIC PROGENITOR CELL PRODUCTION METHOD” (Kyoto University, priority 2017, published 2019)
